Data published in PMC9127750, “Structure-based design of CDC42 effector interaction inhibitors for the treatment of cancer” (Cell reports, 2022).
Where “and” joins values, the source holds several entries; their conditions need not be identical. Equal values may be shown once.

System: WM3248 melanoma cells, 486 antibodies
Assay: Reverse phase protein arrays (RPPA)
Format: cell-based, Human
Conditions: 5 uM
Text: Pellets were snap frozen in liquid nitrogen and shipped to MD Anderson Cancer Center core RPPA facility for RPPA analysis (Table S5). Three biological replicates for each sample were generated.
Nomenclatures on the RPPA heatmaps: name_of_antibody.species_of_antibody.status_of_antibody. V - antibody validated; C - validation of antibody in progress; Q - antibody nonspecific; E – under evaluation; antibodies raised in M - mouse, G - goat, R - rabbit, or T - rat.

## CN(C)c1cccc(Nc2cc(-c3ccccc3)nc(C3CCNCC3)n2)c1 [ARN22089, N1,N1-dimethyl-N3-(6-phenyl-2-(piperidin-4-yl)pyrimidin-4-yl)benzene-1,3-diamine]
Average of 3
  RPPA Shc_pY317.R.C Average: 0.879
  RPPA Slfn11.G.C Average: 0.785
  RPPA Smac.M.Q Average: 0.922
  RPPA Smad1.R.V Average: 1.113
  RPPA Smad3.R.V Average: 0.963
  RPPA Smad4.R.V Average: 1.032
  RPPA Snail.M.Q Average: 1.012
  RPPA Sox2.R.V Average: 0.986
  RPPA Sox17.R.V Average: 0.955
  RPPA Src_pY416.R.V Average: 0.979
  RPPA Src_pY527.R.V Average: 1.190
  RPPA Stat1_pY701.R.V Average: 0.966
  RPPA Stat3.R.C Average: 1.005
  RPPA Stat3_pY705.R.C Average: 0.914
  RPPA Stat5a.R.V Average: 1.163
  RPPA Stathmin.1.R.V Average: 0.991
  RPPA Syk.M.V Average: 0.987
  RPPA Synaptophysin.R.C Average: 1.017
  RPPA TAZ.R.V Average: 0.956
  RPPA TEAD.R.C Average: 1.012
  RPPA TFAM.R.V Average: 1.014
  RPPA TFRC.R.V Average: 0.971
  RPPA TIGAR.R.V Average: 1.035
  RPPA TRAP1.M.V Average: 0.973
  RPPA TRIM24.R.C Average: 0.998
  RPPA TRIP13.R.V Average: 0.948
  RPPA Tau.M.C Average: 0.996
  RPPA Transglutaminase.M.V Average: 0.913
Average of 3 replicates
  RPPA signal, antibody TSC1.R.C, Average: 1.118
  RPPA signal, antibody TTF1.R.V, Average: 0.922
  RPPA signal, antibody TUFM.R.V, Average: 1.149
  RPPA signal, antibody Tuberin.R.V, Average: 1.289
  RPPA signal, antibody Tuberin_pT1462.R.V, Average: 0.994
  RPPA signal, antibody Twist.M.C, Average: 0.991
  RPPA signal, antibody Tyro3.R.V, Average: 0.915
  RPPA signal, antibody UBAC1.R.V, Average: 0.933
  RPPA signal, antibody UBQLN4.M.C, Average: 1.031
  RPPA signal, antibody UGT1A.M.V, Average: 0.995
  RPPA signal, antibody ULK1_pS757.R.C, Average: 1.103
  RPPA signal, antibody UQCRC2.M.C, Average: 0.845
  RPPA signal, antibody UVRAG.R.C, Average: 1.060
  RPPA signal, antibody VASP.R.V, Average: 1.009
  RPPA signal, antibody VEGFR.2_pY1175.R.C, Average: 0.987
  RPPA signal, antibody VHL.EPPK1.M.C, Average: 0.993
  RPPA signal, antibody VHL.R.C, Average: 0.983
  RPPA signal, antibody Vinculin.M.V, Average: 0.997
  RPPA signal, antibody WIPI1.R.C, Average: 0.904
  RPPA signal, antibody WTAP.R.V, Average: 0.916
  RPPA signal, antibody Wee1.R.C, Average: 1.196
  RPPA signal, antibody Wee1_pS642.R.C, Average: 1.114
  RPPA signal, antibody XBP.1.G.C, Average: 0.890
  RPPA signal, antibody XPA.M.V, Average: 1.012
  RPPA signal, antibody XPF.R.C, Average: 1.010
  RPPA signal, antibody XRCC1.R.C, Average: 0.941
  RPPA signal, antibody YAP.R.C, Average: 1.005
  RPPA signal, antibody YAP_pS127.R.V, Average: 0.945
  RPPA signal, antibody YB1_pS102.R.V, Average: 0.981
  RPPA signal, antibody YES1.R.V, Average: 0.965
  RPPA signal, antibody YTHDF2.R.V, Average: 0.921
  RPPA signal, antibody YTHDF3.R.C, Average: 0.920
  RPPA signal, antibody ZAP.70.R.V, Average: 1.002
  RPPA signal, antibody ZEB1.R.V, Average: 0.953
Individual replicates
  RPPA signal, antibody TSC1.R.C: 1.023 and 1.362
  RPPA signal, antibody TTF1.R.V: 0.931 and 1.030 and 0.806
  RPPA signal, antibody TUFM.R.V: 1.892 and 0.802 and 0.754
  RPPA signal, antibody Tuberin.R.V: 0.956 and 1.663 and 1.249
  RPPA signal, antibody Tuberin_pT1462.R.V: 0.926 and 1.194 and 0.864
  RPPA signal, antibody Twist.M.C: 1.006 and 0.964 and 1.005
  RPPA signal, antibody Tyro3.R.V: 1.127 and 0.928 and 0.691
  RPPA signal, antibody U.Histone.H2B.R.C: 0.941
  RPPA signal, antibody UBAC1.R.V: 0.942 and 1.076 and 0.780
  RPPA signal, antibody UBQLN4.M.C: 0.956 and 1.187
  RPPA signal, antibody UGT1A.M.V: 1.021 and 0.968 and 0.996
  RPPA signal, antibody ULK1_pS757.R.C: 1.126
  RPPA signal, antibody UQCRC2.M.C: 0.997 and 0.500
  RPPA signal, antibody UVRAG.R.C: 0.983 and 1.130
  RPPA signal, antibody VASP.R.V: 0.982 and 1.010
  RPPA signal, antibody VAV1.R.C: 0.910 and 1.057 and 1.165
  RPPA signal, antibody VEGFR.2.R.V: 0.908 and 1.050 and 1.150
  RPPA signal, antibody VEGFR.2_pY1175.R.C: 0.907 and 1.020
  RPPA signal, antibody VHL.EPPK1.M.C: 0.920
  RPPA signal, antibody VHL.R.C: 1.080 and 0.894 and 0.975
